Here are results for 1 compound from patent publication US20240139158A1, “METHODS OF TREATING PULMONARY DISEASES AND DISORDERS” (Proteostasis Therapeutics, Inc., priority 2015, published 2024).

The assay concerns the target T1, CFTR, genotype Non-CF (“wild-type”/“wild-type”) (Homo sapiens, UniProt P13569).
T1 construct: Non-CF; endogenous in cells
Kind of assay: Activity by CFTR genotype with compound A (Example 79, Table 2). Format: cell-based. Conditions: Relative Activity of 100% = Vehicle treated, 10 uM. As for the experimental part: Table 2 indicates mutation type and activity with compounds/combination with compound A. ## indicates activity at 30 uM of 50% to <100% of the indicated relative activity treatment, #### indicates activity at 30 uM of ≥150% of the indicated relative activity treatment, + indicates activity at 10 uM of 15% to <50% of the indicated relative activity treatment, ++ indicates activity at 10 uM of 50% to <100% of the indicated relative activity treatment, +++ indicates activity at 10 uM of 100% to <150% of the indicated relative activity treatment, ++++ indicates activity at 10 uM of >150% of the indicated relative activity treatment. NB124 is used at 250 ug/ml, ivacaftor is used at 1 uM, lumacaftor is used at 3 uM, and VX-661 is used at 3 uM.

T1 sequence (P13569 whole entry): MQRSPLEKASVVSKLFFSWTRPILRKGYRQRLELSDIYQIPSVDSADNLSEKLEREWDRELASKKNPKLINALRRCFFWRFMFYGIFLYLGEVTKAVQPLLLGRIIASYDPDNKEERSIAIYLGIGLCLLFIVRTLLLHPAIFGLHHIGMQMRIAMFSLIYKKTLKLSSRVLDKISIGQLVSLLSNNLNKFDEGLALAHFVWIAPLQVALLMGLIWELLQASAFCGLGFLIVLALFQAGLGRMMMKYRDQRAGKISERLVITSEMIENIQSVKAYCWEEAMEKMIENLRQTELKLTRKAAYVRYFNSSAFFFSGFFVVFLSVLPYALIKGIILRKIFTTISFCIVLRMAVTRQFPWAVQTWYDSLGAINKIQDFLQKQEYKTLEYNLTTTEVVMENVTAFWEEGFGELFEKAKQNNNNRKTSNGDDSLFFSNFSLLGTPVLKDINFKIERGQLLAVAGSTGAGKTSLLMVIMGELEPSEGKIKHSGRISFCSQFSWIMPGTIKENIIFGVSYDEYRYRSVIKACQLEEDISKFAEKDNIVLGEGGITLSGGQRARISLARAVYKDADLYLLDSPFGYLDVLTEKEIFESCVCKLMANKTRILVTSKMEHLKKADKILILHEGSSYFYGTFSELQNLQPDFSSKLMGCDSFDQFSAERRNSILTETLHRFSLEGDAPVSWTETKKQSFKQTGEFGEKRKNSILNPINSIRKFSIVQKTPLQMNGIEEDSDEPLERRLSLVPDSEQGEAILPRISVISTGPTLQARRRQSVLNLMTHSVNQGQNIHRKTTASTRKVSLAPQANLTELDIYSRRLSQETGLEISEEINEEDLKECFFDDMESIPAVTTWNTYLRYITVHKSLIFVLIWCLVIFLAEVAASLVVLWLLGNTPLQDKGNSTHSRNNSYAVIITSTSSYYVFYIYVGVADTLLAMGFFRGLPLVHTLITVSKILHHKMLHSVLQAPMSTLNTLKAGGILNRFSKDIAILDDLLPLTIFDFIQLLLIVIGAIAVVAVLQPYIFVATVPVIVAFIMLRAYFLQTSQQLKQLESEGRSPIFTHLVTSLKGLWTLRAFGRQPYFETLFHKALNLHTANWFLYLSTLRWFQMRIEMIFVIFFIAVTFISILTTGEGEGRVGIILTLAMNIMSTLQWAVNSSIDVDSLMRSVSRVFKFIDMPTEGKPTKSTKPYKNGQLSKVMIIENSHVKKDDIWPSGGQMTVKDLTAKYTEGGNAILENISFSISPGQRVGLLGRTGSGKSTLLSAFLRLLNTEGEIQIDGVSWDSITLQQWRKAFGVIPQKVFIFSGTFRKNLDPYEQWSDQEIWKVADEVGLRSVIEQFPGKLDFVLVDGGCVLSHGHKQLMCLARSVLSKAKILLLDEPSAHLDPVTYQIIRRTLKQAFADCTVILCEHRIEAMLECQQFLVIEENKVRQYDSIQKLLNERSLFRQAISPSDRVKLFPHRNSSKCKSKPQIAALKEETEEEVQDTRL

Turning to `C[C@@H](O)c1nnc(C2CC(NC(=O)c3cc(-c4ccccc4)no3)C2)o1` (stereo partly shown) [Compound A], the “Stand Alone activity” value is on record as “+++ (activity at 10 uM of 100% to <150% of the indicated relative activity treatment)”.
